# Experimental data taken from US20110144303A1, “Biologically Active Peptidomimetic Macrocycles” (AILERON Therapeutics, Inc., priority 2008, published 2011).
# Values joined by “and” are separate entries in the source; they are usually repeats but may differ in a detail not shown here. Equal values may be shown once. Read-outs that look alike come from different tables or passages of the source. Starred links: 1 amine or outer side, 2 acyl side, 3 side chain; linkers in the order of their positions; H or OH if unused. Positions of bridges follow the written chain, without caps; N, C: chain ends. Non-standard residues stand in square brackets, D forms with d. Residues, ends and D or L forms follow the SMILES beside them. ξ: configuration not given here. S5 = C=CCCC[C@](C)(N)C(=O)O; Nle = CCCC[C@H](N)C(=O)O; ξαMeC = CC(N)(CS)C(=O)O; X1 = C(=CC[*:2])C[*:1]; X2 = C(CC[*:2])C[*:1]
# What was measured:
# [1] = Pepsin Stability: (E/S 1:50)
# From the text: Table printed on a drawing sheet, Figure 12
# (§1) Title: Pepsin Stability: (E/S 1:50)
# The patent's description of the figure: FIG. 12 describes the comparative pepsin stability of SP-1 and SP-35 peptidomimetic macrocycles of the invention.
# First reader's note: The title is printed over the plot below the table; the rate constants and half-lives describe degradation by pepsin, and the time points used are on the plot's Time (min) axis.
# [2] = Pharmacokinetics of SP-1 and SP-35 in Rat following IV dose
# From the text: Table printed on a drawing sheet, Figure 18
# Title: Pharmacokinetics of SP-1 and SP-35 in Rat following IV dose
# The patent's description of the figure: FIG. 18 illustrates the pharmacokinetic properties of SP-1 and SP-35 peptidomimetic macrocycles in rats.
# First reader's note: The title stands over the plot above the table and applies to both: rat, IV dose.
# GST-Bcl-XL = biological target: T1, GST-Bcl-XL (Homo sapiens, UniProt Q07817); assay: Kd
# T1 construct: GST
# Description: Table printed on a drawing sheet, Figure 7
# The patent's description of the figure: FIG. 7 depicts binding properties to GST-Bcl-XL of SP-1 and SP-35 peptidomimetic macrocycles.
# First copying reader's note: The table stands beside a saturation binding plot (2 µM receptor, 1x PBS + 5 mM CHAPS, 2.5% DMSO) whose legend names GST-Bcl-xL as the receptor for both peptides.
# Where the first naming reader finds the target: description_of_the_figure: FIG. 7 depicts binding properties to GST-Bcl-XL of SP-1 and SP-35 peptidomimetic macrocycles.
# GST-Bcl-2 [3] = assay: Kd
# Description: Table printed on a drawing sheet, Figure 8
# The patent's description of the figure: FIG. 8 depicts binding properties to GST-Bcl-2 of SP-1 and SP-35 peptidomimetic macrocycles.
# First copying reader's note: The Kd values belong to the plot beside the table, titled 'Saturation Binding Curves vs. 2 µM Receptor, 1x PBS + 5 mM CHAPS, 2.5% DMSO', whose legend names the receptor as GST-Bcl-2.
# Where the first naming reader finds the target: description_of_the_figure: FIG. 8 depicts binding properties to GST-Bcl-2 of SP-1 and SP-35 peptidomimetic macrocycles.
# [4] = Pepsin Stability: (E/S 1:50); remark: listed apart in the source
# From the text: Table printed on a drawing sheet, Figure 14
# as §1
# The patent's description of the figure: FIG. 14 describes the comparative pepsin stability of SP-33 and SP-34 peptidomimetic macrocycles of the invention.
# First reader's note: The title is the heading of the plot printed under the table; the table gives the rate constants and half-lives of the pepsin digestion, fitted over the named time points.
# [5] = Pepsin Stability: (E/S 1:50); remark: listed apart in the source
# From the text: Table printed on a drawing sheet, Figure 13
# as §1
# The patent's description of the figure: FIG. 13 describes the comparative pepsin stability of SP-36 and SP-37 peptidomimetic macrocycles of the invention.
# First reader's note: Each peptide appears twice (duplicate runs); the title is printed between the table and the plot of the same figure, and NC/NA are not defined on the sheet.
# [6] = Pharmacokinetics of SP-43 and SP-42 in Rat following IV dose; settings: in vivo
# From the text: Table printed on a drawing sheet, Figure 20
# Title: Pharmacokinetics of SP-43 and SP-42 in Rat following IV dose
# The patent's description of the figure: FIG. 20 illustrates the pharmacokinetic properties of SP-42 and SP-43 peptidomimetic macrocycles in rats.
# First reader's note: Pharmacokinetic parameters in rat after an IV dose; the table stands under a concentration-time plot that is not copied.
# [7] = Pharmacokinetics of SP-4 and SP-54 in Rats following IV dose
# From the text: Table printed on a drawing sheet, Figure 19
# Title: Pharmacokinetics of SP-4 and SP-54 in Rats following IV dose
# The patent's description of the figure: FIG. 19 illustrates the pharmacokinetic properties of SP-4 and SP-54 peptidomimetic macrocycles in rats.
# First reader's note: Pharmacokinetic parameters in rats after IV dosing; the table is printed under a concentration-time plot that is not copied.
# GST-Mcl-1 = assay: Kd
# Description: Table printed on a drawing sheet, Figure 4
# The patent's description of the figure: FIG. 4 depicts binding properties to GST-Mcl-1 of SP-4 and SP-54 peptidomimetic macrocycles.
# First copying reader's note: Kd values belong to the adjacent saturation binding plot (stapled peptides + GST-Mcl-1, 2 µM receptor, 1x PBS + 5 mM CHAPS, 2.5% DMSO).
# Where the first naming reader finds the target: description_of_the_figure: FIG. 4 depicts binding properties to GST-Mcl-1 of SP-4 and SP-54 peptidomimetic macrocycles.
# GST-Bcl-2 [8] = assay: Kd; remark: listed apart in the source
# Description: Table printed on a drawing sheet, Figure 5
# The patent's description of the figure: FIG. 5 depicts binding properties to GST-Bcl-2 of SP-4 and SP-54 peptidomimetic macrocycles.
# First copying reader's note: Kd values belong to the plot beside the table, titled 'Saturation Binding Curves vs. 2 µM Receptor, 1x PBS + 5 mM CHAPS, 2.5% DMSO', with GST-Bcl-2 as the receptor.
# Where the first naming reader finds the target: description_of_the_figure: FIG. 5 depicts binding properties to GST-Bcl-2 of SP-4 and SP-54 peptidomimetic macrocycles.
# T1 sequence (Q07817 whole entry, looked up): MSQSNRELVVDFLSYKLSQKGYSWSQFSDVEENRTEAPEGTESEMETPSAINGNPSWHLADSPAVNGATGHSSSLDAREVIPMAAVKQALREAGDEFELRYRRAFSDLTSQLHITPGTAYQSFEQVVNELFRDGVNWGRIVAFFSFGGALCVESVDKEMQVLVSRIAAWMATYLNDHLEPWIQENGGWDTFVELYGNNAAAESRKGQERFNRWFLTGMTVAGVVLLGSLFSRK
compound,measurement,setting,value
"CCCC[C@H](NC(=O)[C@]1(C)CCCC=CCCC[C@](C)(NC(=O)[C@H](C)NC(=O)[C@H](CC(C)C)NC(=O)[C@H](Cc2c[nH]cn2)NC(=O)[C@H](CCCNC(=N)N)NC(=O)[C@H](C)NC(=O)[C@@H](NC(=O)[C@H](CC(N)=O)NC(=O)[C@H](CCCNC(=N)N)NC(=O)[C@@H](NC(=O)[C@@H](NC(=O)[C@H](CC(=O)O)NC(C)=O)[C@@H](C)CC)[C@@H](C)CC)[C@@H](C)CC)C(=O)N[C@@H](C(C)C)C(=O)NCC(=O)N[C@@H](CC(=O)O)C(=O)N1)C(=O)N[C@@H](CC(=O)O)C(=O)N[C@@H](CCCNC(=N)N)C(=O)N[C@@H](CO)C(=O)N[C@H](C(N)=O)[C@@H](C)CC [SP-1, Ac-DIIRNIARHLA$VGD$NleDRSI-NH2] (Ac-DIIRNIARHLA[S5]VGD[S5][Nle]DRSI-NH2; staple 12-16)",K1 min^-1,[1],0.0084 min⁻¹
same,half-life^1,[1],1.38 h
same,"AUC,inf",[2],72000 ng·h/mL
same,Vss,[2],0.098 L/kg
same,Vz,[2],0.274 L/kg
same,Cmax,"[2]; rat, in vivo, iv",37000 ng/mL
same,MRT,"[2]; rat, in vivo, iv",2.2 h
same,half-life,"[2]; rat, in vivo, iv",4.3 h
same,Kd,GST-Bcl-XL,43 nM
same,Kd,GST-Bcl-2 [3],1600 nM
"CCCC[C@H](NC(=O)[C@@H]1CSCCCCSC[C@H](NC(=O)[C@H](C)NC(=O)[C@H](CC(C)C)NC(=O)[C@H](Cc2c[nH]cn2)NC(=O)[C@H](CCCNC(=N)N)NC(=O)[C@H](C)NC(=O)[C@@H](NC(=O)[C@H](CC(N)=O)NC(=O)[C@H](CCCNC(=N)N)NC(=O)[C@@H](NC(=O)[C@@H](NC(=O)[C@H](CC(=O)O)NC(C)=O)[C@@H](C)CC)[C@@H](C)CC)[C@@H](C)CC)C(=O)N[C@@H](C(C)C)C(=O)NCC(=O)N[C@@H](CC(=O)O)C(=O)N1)C(=O)N[C@@H](CC(=O)O)C(=O)N[C@@H](CCCNC(=N)N)C(=O)N[C@@H](CO)C(=O)N[C@H](C(N)=O)[C@@H](C)CC [SP-33, Ac-DIIRNIARHLA#c4VGD#c4NleDRSI-NH2] (Ac-DIIRNIARHLACVGDC[Nle]DRSI-NH2; linker 12-16 via X2)",K1 min^-1,[4],0.054 min⁻¹
same,K2 min^-1,[4],0.0046 min⁻¹
same,half-life^1,[4],0.217 h
same,half-life^2,[4],2.5 h
"CCCC[C@H](NC(=O)C1(C)CSCCCCSCC(C)(NC(=O)[C@H](C)NC(=O)[C@H](CC(C)C)NC(=O)[C@H](Cc2c[nH]cn2)NC(=O)[C@H](CCCNC(=N)N)NC(=O)[C@H](C)NC(=O)[C@@H](NC(=O)[C@H](CC(N)=O)NC(=O)[C@H](CCCNC(=N)N)NC(=O)[C@@H](NC(=O)[C@@H](NC(=O)[C@H](CC(=O)O)NC(C)=O)[C@@H](C)CC)[C@@H](C)CC)[C@@H](C)CC)C(=O)N[C@@H](C(C)C)C(=O)NCC(=O)N[C@@H](CC(=O)O)C(=O)N1)C(=O)N[C@@H](CC(=O)O)C(=O)N[C@@H](CCCNC(=N)N)C(=O)N[C@@H](CO)C(=O)N[C@H](C(N)=O)[C@@H](C)CC (stereo partly shown) [SP-34, Ac-DIIRNIARHLA$c4VGD$c4NleDRSI-NH2] (Ac-DIIRNIARHLA[ξαMeC]VGD[ξαMeC][Nle]DRSI-NH2; linker 12-16 via X2)",K1 min^-1,[4],0.0019 min⁻¹
same,half-life^1,[4],6 h
"CCCC[C@H](NC(=O)[C@@H]1CSCC=CCSC[C@H](NC(=O)[C@H](C)NC(=O)[C@H](CC(C)C)NC(=O)[C@H](Cc2c[nH]cn2)NC(=O)[C@H](CCCNC(=N)N)NC(=O)[C@H](C)NC(=O)[C@@H](NC(=O)[C@H](CC(N)=O)NC(=O)[C@H](CCCNC(=N)N)NC(=O)[C@@H](NC(=O)[C@@H](NC(=O)[C@H](CC(=O)O)NC(C)=O)[C@@H](C)CC)[C@@H](C)CC)[C@@H](C)CC)C(=O)N[C@@H](C(C)C)C(=O)NCC(=O)N[C@@H](CC(=O)O)C(=O)N1)C(=O)N[C@@H](CC(=O)O)C(=O)N[C@@H](CCCNC(=N)N)C(=O)N[C@@H](CO)C(=O)N[C@H](C(N)=O)[C@@H](C)CC [SP-36, Ac-DIIRNIARHLA#cVGD#cNleDRSI-NH2] (Ac-DIIRNIARHLACVGDC[Nle]DRSI-NH2; linker 12-16 via X1)",K1 min^-1,[5],0.095 min⁻¹ and 0.082 min⁻¹
same,K2 min^-1,[5],0.0290 min⁻¹ and 0.024 min⁻¹
same,half-life^1,[5],7.3 min and 8.5 min
same,half-life^2,[5],0.4 h and 0.483 h
"CC(=O)N[C@@H](CCC(N)=O)C(=O)N[C@@H](CO)C(=O)N[C@@H](CCC(N)=O)C(=O)N[C@@H](CCC(N)=O)C(=O)N[C@H](C(=O)N[C@@H](Cc1ccccc1)C(=O)N[C@@H]1CCCCCCC=CCCC[C@@H](C(=O)N[C@@H](CCC(N)=O)C(=O)N[C@@H](CC(N)=O)C(N)=O)NC(=O)[C@H](CC(C)C)NC(=O)[C@H](CC(C)C)NC(=O)[C@H](CCCNC(=N)N)NC(=O)[C@H](Cc2c[nH]c3ccccc23)NC(=O)[C@H](CC(C)C)NC(=O)[C@H](CC(N)=O)NC1=O)[C@@H](C)O [SP-42, Ac-QSQQTF#r8NLWRLL#QN-NH2]",Cmax,[6],41200 ng/mL
same,MRT,[6],1.1 h
"CC[C@H](C)[C@H](NC(C)=O)C(=O)N[C@@H](Cc1c[nH]c2ccccc12)C(=O)N[C@H](C(=O)N[C@@H](C)C(=O)N[C@@H](CCC(N)=O)C(=O)N[C@@H](CCC(=O)O)C(=O)N[C@@H](CC(C)C)C(=O)N[C@@H](CCCNC(=N)N)C(=O)N[C@H]1CCCC=CCCC[C@@H](C(=O)N[C@@H](Cc2ccccc2)C(=O)N[C@@H](CC(N)=O)C(=O)N[C@@H](C)C(=O)N[C@@H](Cc2ccc(O)cc2)C(=O)N[C@@H](Cc2ccc(O)cc2)C(=O)N[C@@H](C)C(=O)N[C@@H](CCCNC(=N)N)C(=O)N[C@@H](CCCNC(=N)N)C(N)=O)NC(=O)[C@H](CC(=O)O)NC(=O)CNC(=O)[C@H]([C@@H](C)CC)NC1=O)[C@@H](C)CC [SP-54, Ac-IWIAQELR#IGD#FNAYYARR-NH2]","AUC,inf",[7],12700 ng·h/mL
same,Cl,[7],4.02 mL/min/kg
same,Vss,[7],0.126 L/kg
same,Vz,[7],1.206 L/kg
same,Cmax,"[7]; rat, in vivo, iv",27100 ng/mL
same,MRT,"[7]; rat, in vivo, iv",0.52 h
same,half-life,"[7]; rat, in vivo, iv",1 h
same,Kd,GST-Mcl-1,22 nM
same,Kd,GST-Bcl-2 [8],97 nM
